From patent US8633315B2, “Substituted hydroxyethyl amine compounds as beta-secretase modulators and methods of use” (Amgen Inc., priority 2007, dated 2014) come the findings set out here.

Read-outs that look alike come from different tables or passages of the source.

One data set addresses BACE1 (Homo sapiens, UniProt P56817). Put plainly: In vitro enzymatic BACE FRET (fluorescence resonance energy transfer) assay. The format is biochemical. In a few lines: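 Cleavage of a quenched peptide FRET substrate (50 nM) in 0.05 M acetate pH 4.2, 10% DMSO, 100 uM genapol, 1 h incubation. Reaction stopped by Tris neutralization; fluorescence read at excitation 488 nm / […].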

Data set [1] deals with Cells stably expressing Amyloid Precursor Protein (APP). Put plainly: In vitro BACE cell-based assay (HEK cell assay): Aβ40 in conditioned medium by sandwich ELISA. In a few lines: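 APP-stably-expressing cells were grown 24 h in DMEM/10% FBS, then treated for 24 h with 10-point doses starting at 100 μM or 10 μM, at 0.1% DMSO final. Aβ40 in conditioned medium was measured by sandwich ELISA (pAb40 capture, biotinylated 6E10 detection, europium time-resolved fluorescence); IC50 from percent inhibition.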

The next data set concerns the target CYP3A4 (CYP3A) (Homo sapiens, UniProt P08684). Put plainly: CYP3A inhibition assay (midazolam, pooled human liver microsomes). Conditions: human, pooled human liver microsomes, pH 7.4, probe midazolam (printed as about […]); read-out: 3A4 IC50. The format is in vitro ADME. (In general: Microsomes from liver hold many membrane-bound enzymes, among them those of drug oxidation.)

Data set [2] is described as follows: Microsomal stability assay, human liver microsomes. Type of data set: in vitro ADME. An excerpt: (§1) Microsomal Stability Assay
Data set [3] in a line: Microsomal stability assay, rat liver microsomes. The format is in vitro ADME.
Text: as §1

Setting [4] is: Homo sapiens, HEK293, 24 h, Aβ40 in conditioned medium after 24 h incubation.
Setting [5] is: Aβ40 in conditioned medium after 24 h incubation.

Chain of CYP3A4 (CYP3A) (P08684 2-503): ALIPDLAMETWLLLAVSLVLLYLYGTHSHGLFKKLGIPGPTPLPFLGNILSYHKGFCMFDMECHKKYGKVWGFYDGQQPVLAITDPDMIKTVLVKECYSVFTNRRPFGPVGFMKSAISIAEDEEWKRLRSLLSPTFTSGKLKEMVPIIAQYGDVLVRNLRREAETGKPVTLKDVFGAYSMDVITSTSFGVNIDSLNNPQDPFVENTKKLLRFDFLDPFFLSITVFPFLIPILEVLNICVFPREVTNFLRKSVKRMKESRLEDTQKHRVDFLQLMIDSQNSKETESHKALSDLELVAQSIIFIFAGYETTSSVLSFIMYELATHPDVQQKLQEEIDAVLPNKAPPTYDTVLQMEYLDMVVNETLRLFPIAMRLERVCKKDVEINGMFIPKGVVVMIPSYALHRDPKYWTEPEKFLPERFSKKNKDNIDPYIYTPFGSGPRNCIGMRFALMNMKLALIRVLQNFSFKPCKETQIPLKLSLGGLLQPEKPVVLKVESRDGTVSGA
Chain of BACE1 (P56817 46-501, species assumed): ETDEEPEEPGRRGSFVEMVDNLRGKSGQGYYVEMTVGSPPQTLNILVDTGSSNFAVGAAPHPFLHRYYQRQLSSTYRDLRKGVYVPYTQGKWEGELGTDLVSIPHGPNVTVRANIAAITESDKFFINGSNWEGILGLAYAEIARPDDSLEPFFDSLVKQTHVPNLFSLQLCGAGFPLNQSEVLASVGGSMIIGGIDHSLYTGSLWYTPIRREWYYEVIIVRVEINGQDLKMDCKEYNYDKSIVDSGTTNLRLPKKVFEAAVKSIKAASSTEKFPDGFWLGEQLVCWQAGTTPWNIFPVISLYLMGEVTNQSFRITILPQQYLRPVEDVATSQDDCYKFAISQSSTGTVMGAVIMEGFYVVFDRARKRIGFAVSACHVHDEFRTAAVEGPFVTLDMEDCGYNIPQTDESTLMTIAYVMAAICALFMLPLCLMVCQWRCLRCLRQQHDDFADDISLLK

For the compound `CC[C@H](NC(C)=O)[C@H](O)CN[C@H]1CC2(CCC2)Oc2ncc(CC(C)(C)C)cc21` [compound 213], the IC50 on BACE1 (read-out: BACE 1 FRET assay) was found to be 60 nM; in data set [1] (Homo sapiens, HEK293), 339 nM. Besides, on CYP3A4 (CYP3A), the IC50 at 10 min was determined as 27000 nM. Moreover, the HLM in data set [2] amounted to 36 µL/min/mg. In data set [3], the RLM came to 25 µL/min/mg.

Consider `C=CC[C@H](NC(=O)COC)[C@H](O)CN[C@H]1CC2(CCC2)Oc2c1cc(CC(C)(C)C)nc2-c1cncn1C` [compound 238, N-((1S)-1-((1R)-2-(((4′S)-6′-(2,2-dimethylpropyl)-8′-(1-methyl-1H-imidazol-5-yl)-3′,4′-dihydrospiro[cyclobutane-1,2′-pyrano[2,3-c]pyridin]-4′-yl)amino)-1-hydroxyethyl)-3-buten-1-yl)-2-methoxyacetamide], for which the IC50 on BACE1 (read-out: BACE 1 FRET assay) was found to be 946 nM; in data set [1] (Homo sapiens, HEK293), 149 nM. Also, the IC50 at 10 min at CYP3A4 (CYP3A) turned out to be 160 nM. The HLM in data set [2] worked out at 58 µL/min/mg. In data set [3], the RLM was 68 µL/min/mg.

On to `C=CC[C@H](NC(=O)COC)[C@H](O)CN[C@H]1CC2(CCC2)Oc2c(-c3cncs3)cc(CC(C)(C)C)cc21` [compound 217], for which the IC50 came to 20 nM at BACE1 (read-out: BACE 1 FRET assay) and 920 nM in data set [1] (Homo sapiens, HEK293). In addition, the IC50 at 10 min at CYP3A4 (CYP3A) was 200 nM. Besides, in data set [2], the HLM came to 551 µL/min/mg. In data set [3], this compound registered an RLM of 477 µL/min/mg.

In the case of `C=CC[C@H](NC(=O)[C@@H](C)OC)[C@H](O)CN[C@H]1CC2(CCC2)Oc2c1cc(CC(C)C)cc2-n1ccnc1` [compound 208, (2R)-N-((1S)-1-((1R)-1-hydroxy-2-(((4S)-8-(1H-imidazol-1-yl)-6-(2-methylpropyl)-3,4-dihydrospiro[chromene-2,1′-cyclobutan]-4-yl)amino)ethyl)-3-buten-1-yl)-2-methoxypropanamide], the IC50 on BACE1 (read-out: BACE 1 FRET assay) was 477 nM; in data set [1] (Homo sapiens, HEK293), 416 nM. In addition, the IC50 at 10 min on CYP3A4 (CYP3A) came to 200 nM. The compound also had an HLM in data set [2] of 40.5 µL/min/mg. The RLM in data set [3] stood at 337 µL/min/mg.

For the compound `C=CC[C@H](NC(=O)[C@H]1CCC(=O)O1)[C@H](O)CN[C@H]1CC2(CCC2)Oc2ncc(CC(C)(C)C)cc21` [compound 211], the IC50 on BACE1 (read-out: BACE 1 FRET assay) turned out to be 15 nM; in data set [1] (Homo sapiens, HEK293) it was 57 nM. On CYP3A4 (CYP3A), the IC50 at 10 min amounted to 1300 nM. Also, the HLM in data set [2] was 104 µL/min/mg. The RLM in data set [3] is 137 µL/min/mg.

As for `C=C(C)C[C@H](NC(=O)c1ccc2c(c1)OC(F)(F)O2)[C@H](O)CN[C@H]1CC2(CCC2)Oc2ncc(CC(C)(C)C)cc21` [Example 101, N-((1S)-1-((1R)-2-(((4′S)-6′-(2,2-dimethylpropyl)-3′,4′-dihydrospiro[cyclobutane-1,2′-pyrano[2,3-b]pyridin]-4′-yl)amino)-1-hydroxyethyl)-3-methyl-3-buten-1-yl)-2,2-difluoro-1,3-benzodioxole-5-carboxamide], the IC50 was 9880 nM on BACE1 and at least 10000 nM in data set [1] (setting [4]).

`C=CCC(NC(C)=O)C(O)CNC1CC2(CC(O)C2)Oc2ccc(CC(C)(C)C)cc21` [Example 115, N-((1S)-1-((1R)-2-(((2s,3′S,4S)-6-(2,2-dimethylpropyl)-3′-hydroxy-3,4-dihydrospiro[chromene-2,1′-cyclobutan]-4-yl)amino)-1-hydroxyethyl)-3-buten-1-yl)acetamide]: the IC50 stood at 335 nM at BACE1 and 513 nM in data set [1] (setting [5]).

As to `C=CCC(NC(=O)CF)C(O)CNC1CC2(CC(O)C2)Oc2ncc(CC(C)(C)C)cc21` [Example 111, N-((1S)-1-((1R)-2-(((1s,3S,4′S)-6′-(2,2-dimethylpropyl)-3-hydroxy-3′,4′-dihydrospiro[cyclobutane-1,2′-pyrano[2,3-b]pyridin]-4′-yl)amino)-1-hydroxyethyl)-3-buten-1-yl)-2-fluoroacetamide], the IC50 is 20 nM on BACE1 and 65 nM in data set [1] (Homo sapiens, HEK293, Aβ40 in conditioned medium after 24 h incubation).

Regarding `C=CCC(NC(=O)C1CN(C(=O)C(C)C)CCO1)C(O)CNC1CC2(CCC2)Oc2ncc(CC(C)(C)C)cc21` (centres unmarked) [Example 156], the IC50 on BACE1 is 28 nM; in data set [1] (setting [4]), 33 nM.

As for `C=CC[C@H](NC(=O)c1ccc2c(c1)OC(F)(F)O2)[C@H](O)CN[C@H]1CC2(CCC2)Oc2ncc(CC(C)(C)C)cc21` [Example 104, N-((1S)-1-((1R)-2-(((4′S)-6′-(2,2-dimethylpropyl)-3′,4′-dihydrospiro[cyclobutane-1,2′-pyrano[2,3-b]pyridin]-4′-yl)amino)-1-hydroxyethyl)-3-buten-1-yl)-2,2-difluoro-1,3-benzodioxole-5-carboxamide], the IC50 amounted to 154 nM on BACE1 and 2360 nM in data set [1] (setting [4]).

Take `CC=CC[C@H](NC(=O)COC)[C@H](O)CN[C@H]1CC2(CC(F)C2)Oc2ncc(CC(C)(C)C)cc21` (stereo partly drawn) [Example 110, N-((1S)-1-((1R)-2-(((1s,3S,4′S)-6′-(2,2-dimethylpropyl)-3-fluoro-3′,4′-dihydrospiro[cyclobutane-1,2′-pyrano[2,3-b]pyridin]-4′-yl)amino)-1-hydroxyethyl)-3-penten-1-yl)-2-(methyloxy)acetamide]: the IC50 stood at 40 nM on BACE1 and 293 nM in data set [1] (setting [5]).

Take `C=CCC(NC(=O)C1CCC(=O)O1)C(O)CNC1CC2(CC(O)C2)Oc2ncc(CC(C)(C)C)cc21` [Example 112, (2S)-N-((1S)-1-((1R)-2-(((1s,3S,4′S)-6′-(2,2-dimethylpropyl)-3-hydroxy-3′,4′-dihydrospiro[cyclobutane-1,2′-pyrano[2,3-b]pyridin]-4′-yl)amino)-1-hydroxyethyl)-3-buten-1-yl)-5-oxotetrahydro-2-furancarboxamide]: the IC50 on BACE1 was determined as 2 nM; in data set [1] (setting [4]), 28 nM.

Consider `C=CC[C@H](NC(=O)c1cncs1)[C@H](O)CN[C@H]1CC2(CCC2)Oc2ncc(CC(C)(C)C)cc21` [Example 97, N-((1S)-1-((1R)-2-(((4′S)-6′-(2,2-dimethylpropyl)-3′,4′-dihydrospiro[cyclobutane-1,2′-pyrano[2,3-b]pyridin]-4′-yl)amino)-1-hydroxyethyl)-3-buten-1-yl)-1,3-thiazole-5-carboxamide], for which the IC50 on BACE1 came out at 61 nM; in data set [1] (setting [4]) it was 201 nM.

Turning to `C=CC[C@H](NC(=O)c1cc(F)cc(F)c1F)[C@H](O)CN[C@H]1CC2(CCC2)Oc2ncc(CC(C)(C)C)cc21` [Example 74, N-((1S)-1-((1R)-2-(((4′S)-6′-(2,2-dimethylpropyl)-3′,4′-dihydrospiro[cyclobutane-1,2′-pyrano[2,3-b]pyridin]-4′-yl)amino)-1-hydroxyethyl)-3-buten-1-yl)-2,3,5-trifluorobenzamide], the IC50 at BACE1 amounted to 305 nM; in data set [1] (setting [4]), 1620 nM.

Consider `C=CC[C@H](NC(C)=O)[C@H](O)CN[C@H]1CC2(CCC2)Oc2ncc(CC(C)C)cc21` [Example 38, N-((1S)-1-((1R)-1-hydroxy-2-(((4′S)-6′-(2-methylpropyl)-3′,4′-dihydrospiro[cyclobutane-1,2′-pyrano[2,3-b]pyridin]-4′-yl)amino)ethyl)-3-buten-1-yl)acetamide], for which the IC50 turned out to be 81 nM on BACE1 and 85 nM in data set [1] (setting [4]).

As to `C=CC[C@H](NC(=O)c1ccc(F)cc1)[C@H](O)CN[C@H]1CC2(CCC2)Oc2ncc(CC(C)(C)C)cc21` [Example 58, N-((1S)-1-((1R)-2-(((4′S)-6′-(2,2-dimethylpropyl)-3′,4′-dihydrospiro[cyclobutane-1,2′-pyrano[2,3-b]pyridin]-4′-yl)amino)-1-hydroxyethyl)-3-buten-1-yl)-4-fluorobenzamide], the figures for the IC50 (on BACE1; in data set [1] (setting [4])) were 172 nM and 666 nM, respectively.

In the case of `C=CC[C@H](NC(=O)c1ccc(F)nc1)[C@H](O)CN[C@H]1CC2(CCC2)Oc2ncc(CC(C)(C)C)cc21` [Example 66, N-((1S)-1-((1R)-2-(((4′S)-6′-(2,2-dimethylpropyl)-3′,4′-dihydrospiro[cyclobutane-1,2′-pyrano[2,3-b]pyridin]-4′-yl)amino)-1-hydroxyethyl)-3-buten-1-yl)-6-fluoro-3-pyridinecarboxamide], the IC50 at BACE1 amounted to 179 nM; in data set [1] (setting [4]) it was 71 nM.

For the compound `C=CC[C@H](NC(=O)[C@H](CC)OC)[C@H](O)CN[C@H]1CC2(CCC2)Oc2ncc(CC(C)(C)C)cc21` [Example 147, (2S)-N-((1S)-1-((1R)-2-(((4′S)-6′-(2,2-dimethylpropyl)-3′,4′-dihydrospiro[cyclobutane-1,2′-pyrano[2,3-b]pyridin]-4′-yl)amino)-1-hydroxyethyl)-3-buten-1-yl)-2-(methyloxy)butanamide], the IC50 was 95 nM on BACE1 and 420 nM in data set [1] (setting [4]).

Turning to `C=CC[C@H](NC(=O)C(C)(F)F)[C@H](O)CN[C@H]1CC2(CCC2)Oc2ncc(CC(C)(C)C)cc21` [Example 136, N-((1S)-1-((1R)-2-(((4′S)-6′-(2,2-dimethylpropyl)-3′,4′-dihydrospiro[cyclobutane-1,2′-pyrano[2,3-b]pyridin]-4′-yl)amino)-1-hydroxyethyl)-3-buten-1-yl)-2,2-difluoropropanamide], the IC50 on BACE1 turned out to be 37 nM; in data set [1] (setting [4]), 342 nM.
